One assay deals with T1, NR4A1 (Mus musculus, UniProt P12813).
T1 construct: from tissue; host or cells: MC38 tumours in mice (tumour lysates)
Put plainly: PD: NR4A1 degradation in MC38 tumors in mice (immunoblotting). Type of assay: in vivo. The protocol: Samples were lysed using radioimmunoprecipitation assay buffer (RIPA) lysis buffer (150 mM NaCl, 5 mM EDTA, 50 mM Tris pH 8.0, 0.5% sodium deoxycholate, 1% NP-40, 0.1% SDS) supplemented with 1 mM dithiothreitol and protease inhibitors. The lysates were separated by SDS-PAGE and analyzed using standard western blotting procedures ([Khan et al., 2019]). Antibodies: human NR4A1 (ab153914, 1:1,000; Abcam), mouse NR4A1 (14-5965-82, 1:1,000; Invitrogen), NR4A2 (AV38753, 1:1,000; Sigma-Aldrich), NR4A3 (TA804893, 1: 1,000; Thermo Fisher Scientific), VHL (68547, 1:1,000; Cell Signaling), β-actin (13E5, 1:5,000; Cell Signaling), β-tubulin (9F3, 1: 5,000; Cell Signaling), and GAPDH (D16H11, 1: 5,000; Cell Signaling) were employed for protein detection.
7–9-wk-old C57BL/6J, B6.129S2-Ighm^tm1Cgn/J (002288), B6.129S2-Nr4a1^tm1Jmi/J (NR4A1^−/−, 006187), and NOD-SCID interleukin-2 receptor gamma null (NSG) mice were purchased from Jackson Laboratories. […]
For syngeneic tumor models, 5 × 10^5 cells MC38, Yumm1.7, and Yummer1.7, 1 × 10^5 cells of B16F10 were resuspended in PBS and implanted into 7–9-wk-old mice subcutaneously. […] Blood samples were taken from the submandibular (facial) vein before each treatment and 42 days later for hematological analysis, and body weight was measured twice per week up to day 42. […]
On the technique in general: A western blot detects proteins with antibodies after separation by electrophoresis.

The test system of assay [1] is immune cells in the TME, spleen and blood. Put plainly: Immune profile by flow cytometry in B16F10 tumor-bearing mice. The assay is classed as in vivo, mouse. The protocol:
For syngeneic tumor models, 5 × 10^5 cells MC38, Yumm1.7, and Yummer1.7, 1 × 10^5 cells of B16F10 were resuspended in PBS and implanted into 7–9-wk-old mice subcutaneously. For the tumor inhibition experiment, mice were treated with 1.8 mg/kg NR-V04 or 0.75 mg/kg celastrol by i.p. injection twice weekly. For the immune profile experiment, once tumors reached 0.5 cm in diameter, mice were treated with 1.8 mg/kg NR-V04 by i.p. injection twice weekly. For the toxicity experiment, male and female non-tumor-bearing mice were treated with 2 mg/kg NR-V04 for two doses in the first week and 5 mg/kg for another two doses in the second week. Blood samples were taken from the submandibular (facial) vein before each treatment and 42 days later for hematological analysis, and body weight was measured twice per week up to day 42. Mice were euthanized in accordance with the IACUC protocol once the largest tumors reached 2 cm in diameter, and tissues were collected for further analysis.
Mouse tumors were excised and ∼200 mg of tumor tissue was enzymatically and mechanically digested using the mouse Tumor Dissociation Kit (Miltenyi Biotec) to obtain a single-cell suspension. Human tumor samples and sections were enzymatically and mechanically digested using the human Tumor Dissociation Kit (Miltenyi Biotec) to obtain single-cell suspension. Red blood cells were lysed using ACK lysis buffer and mononuclear cells were isolated by density gradient using SepMate Tubes (StemCell Technologies) and Lymphoprep density gradient media (StemCell Technologies). Mouse cells were then washed and incubated with combinations of the following antibodies: anti-mouse CD62L-BV785 (clone MEL-14), anti-mouse MHCII I-A/I-E-BB515 (Clone 2G9, 1:400; BD Biosciences), anti-mouse CD11B-PEdazzle 594 (clone M1/70, 1:200), anti-mouse CD45-AF532 (clone 30F.11), anti-mouse CD3-APC/Cy7 (clone 17A2), anti-mouse CD8-BV510 (clone 53-6.7), anti-mouse CD4-BV605 (clone GK1.5), anti-mouse NK1.1-AF700 (clone PK136), anti-mouse/human CD45R/B220-BV 570 (clone RA3-6B2), anti-mouse CD138-BV711 (clone 281-2), […], anti-mouse IgD-PE-Cy7 (clone 11-26c.2a), anti-mouse Ly6G-FITC (clone IA8), anti-mouse Ly6C-BV711 (clone HK1.4), anti-mouse CD38-PerCP/Cy 5.5 (clone 90) anti-mouse IgM-AF488 (clone RMM-1), anti-mouse CD25-PE-Cy5 (clone PC61) plus zombie red (cell viability; Thermo Fisher Scientific), and mouse FcR blocker (anti-mouse CD16/CD32, clone 2.4G2; BD Biosciences). After surface staining, cells were fixed and permeabilized using the FOXP3/Transcription Factor Staining Buffer Set (eBioscience). Cells were stained with a combination of the following antibodies: anti-mouse FOXP3-efluor 450 (clone FJK-16S, 1:50; eBioscience), anti-mouse Granzyme B-BV421 (clone GB11), and anti-mouse NR4A1-PE (clone 12.14; eBioscience). Human cells were stained with a combination of the following antibodies: anti-human CD45-BV510 (clone H130), anti-human CD3-AF700 (clone HIT5a), anti-human CD4-BV421 (clone OKT4), anti-human CD8-BV711 (clone RPA-T8), anti-human CD127-BV605 (clone A019DS), anti-human CD25-PE-Cy7 (clone MA251) plus FVD-eFluor-780 (eBioscience), and human FcR blocking reagent (StemCell Technologies). Cells were washed then fixed and permeabilized using the eBioscience FOXP3/Transcription Factor Staining Buffer Set. […] Flow cytometry was performed on a three laser Cytek Aurora Cytometer (Cytek Biosciences) and analyzed using FlowJo software (BD Biosciences). […]
For orientation: A flow cytometer gives signals particle by particle.

The next assay concerns human CD8^+ Texh cells. Put plainly: T cell exhaustion in vitro, human PBMC-derived T cells. The settings on record: 500 nM, 48 h. The assay is classed as cell-based. Here is the method: We conducted experiments involving the isolations and treatments of CD8^+ T cells from both OT-1 mice (C57BL/6-Tg(TcraTcrb)1100Mjb/J; Jackson Laboratories) and T cells from human PBMCs. CD8^+ T cells were isolated from OT-1 mice using the EasySep Mouse CD8 T Cell Isolation Kit, followed by daily treatment with 10 ng/ml ovalbumin (257–264) (S7951-1MG; Sigma-Aldrich) for specified durations. After 3 days of ovalbumin treatment, OT-1 CD8^+ T cells were activated, and after 7 days of treatment, they reached a state of exhaustion. Human T cells were isolated from PBMCs using the EasySep Human CD3 Positive Selection Kit II (17851; STEMCELL) and cultured with Dynabeads (Cell/Dynabeads: 1:1, A56992; Thermo Fisher Scientific) for 3 days to induce activation and for 7 days to induce exhaustion. Both mouse and human T cells received a treatment of 500 nM NR-V04 2 days prior to harvesting. To characterize the T cell subtypes, we employed specific flow cytometry antibodies and conducted flow cytometry analysis.
Mouse tumors were excised and ∼200 mg of tumor tissue was enzymatically and mechanically digested using the mouse Tumor Dissociation Kit (Miltenyi Biotec) to obtain a single-cell suspension. […] Flow cytometry was performed on a three laser Cytek Aurora Cytometer (Cytek Biosciences) and analyzed using FlowJo software (BD Biosciences). […]

T1 sequence (P12813 whole entry): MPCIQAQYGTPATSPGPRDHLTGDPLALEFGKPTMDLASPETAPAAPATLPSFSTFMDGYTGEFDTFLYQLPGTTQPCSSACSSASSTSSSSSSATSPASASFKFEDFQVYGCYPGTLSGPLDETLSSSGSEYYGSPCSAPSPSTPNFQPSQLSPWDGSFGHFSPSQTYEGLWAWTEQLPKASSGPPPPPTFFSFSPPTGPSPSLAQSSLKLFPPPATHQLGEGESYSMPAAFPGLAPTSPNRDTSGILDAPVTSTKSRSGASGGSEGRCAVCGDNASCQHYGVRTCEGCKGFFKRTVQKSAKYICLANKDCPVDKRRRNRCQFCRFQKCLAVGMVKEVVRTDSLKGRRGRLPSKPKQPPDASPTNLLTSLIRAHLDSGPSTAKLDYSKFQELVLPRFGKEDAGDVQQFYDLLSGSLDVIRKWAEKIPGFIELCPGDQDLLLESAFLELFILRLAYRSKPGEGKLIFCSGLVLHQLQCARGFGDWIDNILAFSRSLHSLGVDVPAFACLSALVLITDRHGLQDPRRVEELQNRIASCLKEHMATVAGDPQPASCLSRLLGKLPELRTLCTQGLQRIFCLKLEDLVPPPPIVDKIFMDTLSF

Turning to `CC1=C(O)C(=O)C=C2C1=CC=C1[C@@]2(C)CC[C@@]2(C)[C@@H]3C[C@](C)(C(=O)NCCOCCOCCOCCOCC(=O)N[C@H](C(=O)N4C[C@H](O)C[C@H]4C(=O)N[C@@H](C)c4ccc(-c5scnc5C)cc4)C(C)(C)C)CC[C@]3(C)CC[C@]12C` [NR-V04], on NR4A1 (8 doses for 4 wk, 1.8 mg/kg NR-V04 or 0.75 mg/kg celastrol, every 4 days), the “NR4A1 protein in MC38 tumors at termination” value is “almost completely degraded”. For the same compound, the “NR4A1 degradation in MC38 tumors” value at NR4A1 (two doses of 1.8 mg/kg i.p., tumors collected 1-4 days after the last treatment) was “significant degradation of NR4A1 starting from day 1 and persisting for 3 days”. In addition, in assay [1] (B16F10 model, 2 doses of 1.8 mg/kg i.p.), the “B cells in the spleen and blood” value is “no significant change”. In addition, the “CD8^+ Texh cells in vivo” value in assay [1] (B16F10 tumors) was “did not observe a significant decrease in CD8^+ Texh cells”. The “TI-B cells (B220^+ cells)” value in assay [1] (B16F10 tumors, 2 doses of 1.8 mg/kg i.p. on day 1 and day 4, collected day 7, vehicle 14.7%) is listed as 30.1%. Also, the “effector memory CD8 T cells (CD44^+CD62L^− Tem)” value in assay [1] (spleen and tumors, B16F10 model, 2 doses of 1.8 mg/kg i.p.) was “increase in effector memory CD8 T cells”. Also, the “monocytic myeloid-derived suppressor cells (m-MDSC, CD11B^+Ly6C^+)” value in assay [1] (tumors and blood, B16F10 model, 2 doses of 1.8 mg/kg i.p.) was “decrease in monocytic myeloid-derived suppressor cells”. Also, in the assay on human CD8^+ Texh cells, the “CD8^+ Texh cells (CD8^+CTLA-4^+Tim3^+)” value was “significant reduction in CD8^+ Texh cells”.
